Data published in the supplement of paper PMC11451515.

How the values were obtained:
Details in all cases: 48 h
SEM cells [1] = test: cell viability relative to DMSO control; higher = less cytotoxic
Summary of the method: (§1)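 Viability values are per-plate percentages of DMSO wells, with background from cell-free wells. Library compounds in DMSO were pin-dosed, in an 11-point threefold series from 47 μM to 0.79 nM, onto NOMO1 or SEM (500 cells/well) or P12-Ichikawa (1000 cells/well) leukemia cells in 1536-well plates (5 μl). Those cells had been adapted for at least four passages in each medium, and CellTiter-Glo One luminescence was read after 48 h at 37°C.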

P12-Ichikawa [2] = test: as above
Summary of the method: as §1

NOMO1 [3] = test: as above
Summary of the method: as §1

SEM cells [4] = test: AUC of viability dose-response curve (% viability x log10 dose units); higher = less sensitive
Summary of the method: (§2)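 Leukemia cells adapted to each medium were seeded in 1536-well plates (500 or 1000 cells/well). They were dosed with library compounds in DMSO at 11 threefold doses, 47 μM to 0.79 nM, for 48 h at 37°C. CellTiter-Glo One luminescence was normalised per plate to DMSO and cell-free wells. Area under the curve was integrated by trapezoidal rule over log10 doses on a four-parameter log-logistic fit; curves exceeding full viability were scaled and curves failing quality control removed.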

P12-Ichikawa [5] = test: as above
Summary of the method: as §2

NOMO1 [6] = test: as above
Summary of the method: as §2

COc1ccc([C@@H]2CC(=O)c3c(O)cc(O[C@@H]4O[C@H](CO[C@@H]5O[C@@H](C)[C@H](O)[C@@H](O)[C@H]5O)[C@@H](O)[C@H](O)[C@H]4O)cc3O2)cc1O
cell viability [%]
Details | NOMO1 [3] | P12-Ichikawa [2] | SEM cells [1]
HPLM + 10% dialyzed FBS, 0.000781 µM | 107 | 107 | 98.6
HPLM + 10% dialyzed FBS, 0.00234 µM | 117 | 109 | 101
HPLM + 10% dialyzed FBS, 0.00702 µM | 122 | 106 | 119
HPLM + 10% dialyzed FBS, 0.0211 µM | 128 | 114 | 114
HPLM + 10% dialyzed FBS, 0.0632 µM | 116 | 120 | 109
HPLM + 10% dialyzed FBS, 0.19 µM | 123 | 124 | 120
HPLM + 10% dialyzed FBS, 0.569 µM | 125 | 121 | 103
HPLM + 10% dialyzed FBS, 1.71 µM | 118 | 118 | 102
HPLM + 10% dialyzed FBS, 5.12 µM | 115 | 115 | 112
HPLM + 10% dialyzed FBS, 15.4 µM | 108 | 114 | 107
HPLM + 10% dialyzed FBS, 46.1 µM | 103 | 116 | 74
RPMI 5 mM glucose + 10% FBS, 0.000781 µM | 120 | 94.2 | 117
RPMI 5 mM glucose + 10% FBS, 0.00234 µM | 106 | 104 | 106
RPMI 5 mM glucose + 10% FBS, 0.00702 µM | 107 | 109 | 107
RPMI 5 mM glucose + 10% FBS, 0.0211 µM | 114 | 93.7 | 102
RPMI 5 mM glucose + 10% FBS, 0.0632 µM | 121 | 107 | 111
RPMI 5 mM glucose + 10% FBS, 0.19 µM | 118 | 115 | 106
RPMI 5 mM glucose + 10% FBS, 0.569 µM | 117 | 111 | 115
RPMI 5 mM glucose + 10% FBS, 1.71 µM | 123 | 119 | 116
RPMI 5 mM glucose + 10% FBS, 5.12 µM | 120 | 110 | 103
RPMI 5 mM glucose + 10% FBS, 15.4 µM | 119 | 105 | 111
RPMI 5 mM glucose + 10% FBS, 46.1 µM | 118 | 103 | 52.7
RPMI 5 mM glucose + 10% dialyzed FBS, 0.000781 µM | 98.8 | 97.3 | 110
RPMI 5 mM glucose + 10% dialyzed FBS, 0.00234 µM | 106 | 117 | 138
RPMI 5 mM glucose + 10% dialyzed FBS, 0.00702 µM | 115 | 114 | 108
RPMI 5 mM glucose + 10% dialyzed FBS, 0.0211 µM | 113 | 111 | 115
RPMI 5 mM glucose + 10% dialyzed FBS, 0.0632 µM | 110 | 123 | 126
RPMI 5 mM glucose + 10% dialyzed FBS, 0.19 µM | 96.6 | 116 | 114
RPMI 5 mM glucose + 10% dialyzed FBS, 0.569 µM | 115 | 126 | 131
RPMI 5 mM glucose + 10% dialyzed FBS, 1.71 µM | 125 | 119 | 120
RPMI 5 mM glucose + 10% dialyzed FBS, 5.12 µM | 115 | 122 | 119
RPMI 5 mM glucose + 10% dialyzed FBS, 15.4 µM | 101 | 111 | 127
RPMI 5 mM glucose + 10% dialyzed FBS, 46.1 µM | 101 | 114 | 44

AUC of viability dose-response curve
Details | NOMO1 [6] | P12-Ichikawa [5] | SEM cells [4]
HPLM + 10% dialyzed FBS | 477 | 467 | 465
RPMI 5 mM glucose + 10% FBS | 457 | 468 | 469
RPMI 5 mM glucose + 10% dialyzed FBS | 468 | 473 | 469

O=C(O)C1(Cc2cccc(Nc3nccs3)n2)CCC(Oc2cccc(Cl)c2F)CC1 (stereo unspecified)
cell viability [%]
Details | NOMO1 [3] | P12-Ichikawa [2] | SEM cells [1]
HPLM + 10% dialyzed FBS, 0.000781 µM | 98.9 | 102 | 86.3
HPLM + 10% dialyzed FBS, 0.00234 µM | 116 | 111 | 108
HPLM + 10% dialyzed FBS, 0.00702 µM | 117 | 112 | 93.3
HPLM + 10% dialyzed FBS, 0.0211 µM | 108 | 108 | 68.4
HPLM + 10% dialyzed FBS, 0.0632 µM | 104 | 115 | 104
HPLM + 10% dialyzed FBS, 0.19 µM | 116 | 114 | 101
HPLM + 10% dialyzed FBS, 0.569 µM | 120 | 99.5 | 108
HPLM + 10% dialyzed FBS, 1.71 µM | 69.6 | 57.8 | 75.6
HPLM + 10% dialyzed FBS, 5.12 µM | 45.3 | 39.4 | 42
HPLM + 10% dialyzed FBS, 15.4 µM | 34.2 | 18.8 | 28.9
HPLM + 10% dialyzed FBS, 46.1 µM | 35.5 | 13.7 | 18.9
RPMI 5 mM glucose + 10% FBS, 0.000781 µM | 110 | 102 | 97
RPMI 5 mM glucose + 10% FBS, 0.00234 µM | 96.2 | 116 | 88.9
RPMI 5 mM glucose + 10% FBS, 0.00702 µM | 99.5 | 108 | 101
RPMI 5 mM glucose + 10% FBS, 0.0211 µM | 91.9 | 93.8 | 87.4
RPMI 5 mM glucose + 10% FBS, 0.0632 µM | 106 | 122 | 114
RPMI 5 mM glucose + 10% FBS, 0.19 µM | 102 | 111 | 96.5
RPMI 5 mM glucose + 10% FBS, 0.569 µM | 96.9 | 108 | 102
RPMI 5 mM glucose + 10% FBS, 1.71 µM | 74.1 | 65.8 | 66.5
RPMI 5 mM glucose + 10% FBS, 5.12 µM | 43.7 | 47.1 | 43.1
RPMI 5 mM glucose + 10% FBS, 15.4 µM | 31.8 | 33.9 | 22.2
RPMI 5 mM glucose + 10% FBS, 46.1 µM | 23.2 | 17.3 | 12.7
RPMI 5 mM glucose + 10% dialyzed FBS, 0.000781 µM | 107 | 108 | 81.9
RPMI 5 mM glucose + 10% dialyzed FBS, 0.00234 µM | 104 | 116 | 86.5
RPMI 5 mM glucose + 10% dialyzed FBS, 0.00702 µM | 98.8 | 118 | 97.5
RPMI 5 mM glucose + 10% dialyzed FBS, 0.0211 µM | 104 | 116 | 92.6
RPMI 5 mM glucose + 10% dialyzed FBS, 0.0632 µM | 105 | 116 | 95.1
RPMI 5 mM glucose + 10% dialyzed FBS, 0.19 µM | 105 | 117 | 111
RPMI 5 mM glucose + 10% dialyzed FBS, 0.569 µM | 102 | 115 | 111
RPMI 5 mM glucose + 10% dialyzed FBS, 1.71 µM | 72 | 68.9 | 68.7
RPMI 5 mM glucose + 10% dialyzed FBS, 5.12 µM | 50.4 | 65.2 | 43.2
RPMI 5 mM glucose + 10% dialyzed FBS, 15.4 µM | 34.4 | 33.5 | 25.2
RPMI 5 mM glucose + 10% dialyzed FBS, 46.1 µM | 34 | 31.8 | 17.1

AUC of viability dose-response curve
Details | NOMO1 [6] | P12-Ichikawa [5] | SEM cells [4]
HPLM + 10% dialyzed FBS | 381 | 356 | 370
RPMI 5 mM glucose + 10% FBS | 382 | 373 | 369
RPMI 5 mM glucose + 10% dialyzed FBS | 386 | 381 | 368
